Publication PMC9967108 (Viruses, 2023)

Columns and labels:
main protease = main protease (Severe acute respiratory syndrome coronavirus 2, UniProt P0DTD1); assay: Dissociation constant (KD) test by fluorescence titration; format: binding, SARS-CoV-2; settings: inhibitor titration, intrinsic fluorescence, Scatchard plot
SARS-CoV-2 Mpro = SARS-CoV-2 Mpro (Severe acute respiratory syndrome coronavirus 2, UniProt P0DTD1); assay: Mpro protease activity assay (IC50 test, fluorogenic substrate)

## Cc1ccc(CNC(=O)C2CC(n3cnnn3)CN2Cc2ccc(OCc3ccccc3)cc2)cc1 (stereo not drawn) [CB-25]
Main protease
  Kd: 10.8 ± 1.32 µM
SARS-CoV-2 Mpro
  IC50: 22.7 µM

## Cc1cc(CNC(=O)Nn2cnc3ccccc32)ccc1F [CP-1]
Main protease
  Kd: 5.08 ± 0.38 µM
SARS-CoV-2 Mpro
  IC50: 18.5 µM

## Cc1ccc(C2CC(c3cccs3)=NN2C(=O)CSc2nnc(CNC(=O)c3ccco3)n2-c2cccc(Cl)c2)cc1 (stereo not drawn) [LC24-20]
Main protease
  Kd: 20 ± 1.27 µM
SARS-CoV-2 Mpro
  IC50: 32.9 µM
